Columns and labels:
Wee1 kinase domain = biological target: T1, Wee1 kinase domain (Homo sapiens, UniProt P30291); experiment: Wee1 Kinase Biochemical Assay (ADP-Glo); settings: 15 uM ATP
T1 construct: Wee1 kinase domain was purchased from Carna (catalog #05-177); purchased Carna 05-177
Procedure, shortened: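 Kinase domain (1 nM) incubated 4 h at 25 °C with 15 uM ATP and 2 ng/mL Poly(Lys,Tyr 4:1) in 40 mM Tris-HCl, 20 mM MgCl2, 0.1 mg/mL BSA, 2 mM DTT. ADP formation read by ADP-Glo luminescence; percent inhibition normalized to DMSO and saturating reference-inhibitor controls.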

[1] = tested on: phosphorylation of Cdc2 Y15 (Wee1 substrate) in A427 cells; experiment: Phosphorylated Cdc2 MSD Electrochemiluminescence Assay; assay type: cell-based; settings: Homo sapiens, A-427, pCDC2 MSD
Description: Phosphorylated Cdc2 MSD Electrochemiluminescence Assay
The effect of Wee1 inhibitors on cellular phosphorylation of the Wee1 substrate Cdc2 was determined using the following protocol:
A total of 40,000 A427 cells in 100 uL culture medium (1640 medium+10% Fetal bovine serum+1% Penicillin-Streptomycin) were plated in 96-well cell culture plates. 3-fold serial dilutions of test compounds were prepared in completed PBS at 25× final concentration. After 20 hours, the plates were removed and 4 μL of each were added to the cells and incubated with shaking for 30 minutes at 37° C., 5% CO2. Each concentration was tested in duplicate. After a total 6 hours incubation, plates were removed and centrifuged for 5 minutes and 100 uL of supernatant from each well was removed. Cells were washed with 200 μL PBS and lysed with 50 μL MSD lysis buffer (Meso Scale Diagnostics) supplied with 1× complete ULTRA cocktail inhibitor (Roche).
To detect phosphorylation of Cdc2 Y15, 30 μL of capture antibody solution (CST catalog #9116S 1:200) was added into each well of the MSD plate (MSD catalog #L15XB-6), sealed and incubated at 4° C. with shaking (450 rpm) overnight. The antibody solution was removed, wells blocked with BSA solution and plates washed three times with PBST, followed by addition of 30 μl of cell lysate per well. After 2 hours of incubation, plates were washed three times with PBST. 30 μL of 1× detection antibody solution (CST catalog #4539S 1:200) was then added to each well and incubated for 1 hour. Plates were washed three times with PBST and 30 μL of 1× secondary antibody solution (MSD, catalog #:R32AB-1, 1:5000) was added to each well and incubated for 1 hour. Plates were washed three times with PBST and 150 μL of 1× Read Buffer T (MSD, catalog #R92TC-1) was added to each well of the MSD plate. The electrochemiluminescence signal was measured on a MESO SECTOR S600 plate reader. The percentage of remaining phosphorylated Cdc2 signal was calculated following the equation below.
[formula] • HC (high control): Cells treated with DMSO • Cpds: Cells treated with test compounds • LC (low control): Cells treated with positive control Wee1 inhibitor

[2] = class symbols, 1 nM Wee1 enzyme, 4 hours at 25° C.
[3] = 1 nM Wee1 enzyme, 4 hours at 25° C

T1 sequence (P30291 299-569 limits assumed): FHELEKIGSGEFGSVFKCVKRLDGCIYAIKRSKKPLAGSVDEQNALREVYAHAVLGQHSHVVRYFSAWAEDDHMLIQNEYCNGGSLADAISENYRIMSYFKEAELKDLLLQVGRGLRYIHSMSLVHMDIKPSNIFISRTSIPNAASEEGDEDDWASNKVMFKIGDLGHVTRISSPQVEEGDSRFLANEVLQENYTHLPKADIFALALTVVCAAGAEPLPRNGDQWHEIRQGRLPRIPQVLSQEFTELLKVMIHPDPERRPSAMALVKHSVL

Compound | IC50 (Wee1 kinase domain; Wee1 kinase domain, ADP-Glo) [nM] | IC50 [1] [nM] | IC50 (Wee1 kinase domain; [2]) [nM] | further results
CNCc1cccc(N2c3nc(Nc4ccc(N5CCCCC5)cc4)ncc3[C@@]3(C)COC(C)(C)C[C@@H]23)n1 (single isomer, unassigned) [Example 2] | < 10 | 100 to 1000 | – | –
CN1CCN(c2ccc(Nc3ncc4c(n3)N(c3cccc(C(C)(C)O)n3)[C@@H]3CC(C)(C)OC[C@]43C)cc2)CC1 (single isomer, unassigned) [Example 4] | < 10 | 100 to 1000 | – | –
CNCc1cccc(N2c3nc(Nc4ccc(N5CCOCC5)cc4)ncc3[C@@]3(C)COC(C)(C)C[C@@H]23)n1 (single isomer, unassigned) [Example 5] | < 10 | 100 to 1000 | – | –
Cc1cc(Nc2ncc3c(n2)N(c2cccc(C(C)(C)O)n2)[C@@H]2CC(C)(C)OC[C@]32C)ccc1C1CCN(C)CC1 (single isomer, unassigned) [Example 8] | < 10 | 100 to 1000 | – | –
Cc1cc(Nc2ncc3c(n2)N(c2cccc(C(C)(C)O)n2)[C@@H]2CC(C)(C)OC[C@]32C)ccc1N1CCN(C)CC1 (single isomer, unassigned) [Example 9] | < 10 | 100 to 1000 | – | –
CN1CCC(n2cc(Nc3ncc4c(n3)N(c3cccc(C(C)(C)O)n3)[C@@H]3CC(C)(C)OC[C@]43C)cn2)CC1 (single isomer, unassigned) [Example 11] | < 10 | 100 to 1000 | – | –
CNCc1cccc(N2c3nc(Nc4ccc(N5CCOCC5)c(Cl)c4)ncc3[C@@]3(C)COC(C)(C)C[C@@H]23)n1 (single isomer, unassigned) [Example 14] | < 10 | 100 to 1000 | – | –
CC1(C)C[C@H]2N(c3cccc([C@@H]4CCCN4)n3)c3nc(Nc4ccn(C5CCOCC5)c(=O)c4)ncc3[C@@]2(C)CO1 (single isomer, unassigned) [Example 392, 1-(tetrahydro-2H-pyran-4-yl)-4-(((4bR,8aR)-4b,7,7-trimethyl-9-(6-((S)-pyrrolidin-2-yl)pyridin-2-yl)-4b,5,7,8,8a,9-hexahydropyrano[3′,4′:4,5]pyrrolo[2,3-d]pyrimidin-2-yl)amino)pyridin-2(1H)-one] | – | 1000 to 10000 | – | –
CN1C[C@H]2C[C@@H]1CN2c1ccc(Nc2ncc3c(n2)N(c2cccc(N4C(=O)OCC4(C)C)n2)[C@@H]2CC(C)(C)OC[C@]32C)cc1 [Example 795, 4,4-dimethyl-3-(6-((4bR,8aR)-4b,7,7-trimethyl-2-((4-((1R,4R)-5-methyl-2,5-diazabicyclo[2.2.1]heptan-2-yl)phenyl)amino)-4b,7,8,8a-tetrahydropyrano[3′,4′:4,5]pyrrolo[2,3-d]pyrimidin-9(5H)-yl)pyridin-2-yl)oxazolidin-2-one] | – | – | < 10 | –
CN1C[C@@H]2C[C@H]1CN2c1ccc(Nc2ncc3c(n2)N(c2cccc(N4C(=O)OCC4(C)C)n2)[C@@H]2CC(C)(C)OC[C@]32C)cc1 [Example 796, 4,4-dimethyl-3-(6-((4bR,8aR)-4b,7,7-trimethyl-2-((4-((1S,4S)-5-methyl-2,5-diazabicyclo[2.2.1]heptan-2-yl)phenyl)amino)-4b,7,8,8a-tetrahydropyrano[3′,4′:4,5]pyrrolo[2,3-d]pyrimidin-9(5H)-yl)pyridin-2-yl)oxazolidin-2-one] | – | – | < 10 | –
CN1C[C@H]2C[C@@H]1CN2c1ccc(Nc2ncc3c(n2)N(c2cccc(N4C(=O)CCC4(C)C)n2)[C@@H]2CC(C)(C)OC[C@]32C)cc1 [Example 797, 5,5-dimethyl-1-(6-((4bR,8aR)-4b,7,7-trimethyl-2-((4-((1R,4R)-5-methyl-2,5-diazabicyclo[2.2.1]heptan-2-yl)phenyl)amino)-4b,7,8,8a-tetrahydropyrano[3′,4′:4,5]pyrrolo[2,3-d]pyrimidin-9(5H)-yl)pyridin-2-yl)pyrrolidin-2-one] | – | – | < 10 | –
CN1C[C@@H]2C[C@H]1CN2c1ccc(Nc2ncc3c(n2)N(c2cccc(N4C(=O)CCC4(C)C)n2)[C@@H]2CC(C)(C)OC[C@]32C)cc1 [Example 798, 5,5-dimethyl-1-(6-((4bR,8aR)-4b,7,7-trimethyl-2-((4-((1S,4S)-5-methyl-2,5-diazabicyclo[2.2.1]heptan-2-yl)phenyl)amino)-4b,7,8,8a-tetrahydropyrano[3′,4′:4,5]pyrrolo[2,3-d]pyrimidin-9(5H)-yl)pyridin-2-yl)pyrrolidin-2-one] | – | – | < 10 | –
CN1C[C@@H]2C[C@H]1CN2c1ccc(Nc2ncc3c(n2)N(c2ccccn2)[C@@H]2CC(C)(C)OC[C@]32C)cc1 [Example 800, (4bR,8aR)-4b,7,7-trimethyl-N-(4-((1S,4S)-5-methyl-2,5-diazabicyclo[2.2.1]heptan-2-yl)phenyl)-9-(pyridin-2-yl)-4b,5,7,8,8a,9-hexahydropyrano[3′,4′:4,5]pyrrolo[2,3-d]pyrimidin-2-amine] | – | – | < 10 | –
CN1C[C@H]2C[C@@H]1CN2c1ccc(Nc2ncc3c(n2)N(c2ccccn2)[C@@H]2CC(C)(C)OC[C@]32C)cc1 [Example 801, (4bR,8aR)-4b,7,7-trimethyl-N-(4-((1R,4R)-5-methyl-2,5-diazabicyclo[2.2.1]heptan-2-yl)phenyl)-9-(pyridin-2-yl)-4b,5,7,8,8a,9-hexahydropyrano[3′,4′:4,5]pyrrolo[2,3-d]pyrimidin-2-amine] | – | – | < 10 | –
CN1CC[C@@H](n2ccc(Nc3ncc4c(n3)N(c3cccc(N=S(C)(C)=O)n3)[C@@H]3CC(C)(C)OC[C@]43C)cc2=O)C1 [Example 804, 4-(((4bR,8aR)-9-(6-((dimethyl(oxo)-16-sulfaneylidene)amino)pyridin-2-yl)-4b,7,7-trimethyl-4b,5,7,8,8a,9-hexahydropyrano[3′,4′:4,5]pyrrolo[2,3-d]pyrimidin-2-yl)amino)-1-((R)-1-methylpyrrolidin-3-yl)pyridin-2(1H)-one] | – | – | < 10 | –
CN1CC[C@H](n2ccc(Nc3ncc4c(n3)N(c3cccc(N=S(C)(C)=O)n3)[C@@H]3CC(C)(C)OC[C@]43C)cc2=O)C1 [Example 805, 4-(((4bR,8aR)-9-(6-((dimethyl(oxo)-16-sulfaneylidene)amino)pyridin-2-yl)-4b,7,7-trimethyl-4b,5,7,8,8a,9-hexahydropyrano[3′,4′:4,5]pyrrolo[2,3-d]pyrimidin-2-yl)amino)-1-((S)-1-methylpyrrolidin-3-yl)pyridin-2(1H)-one] | – | – | < 10 | –
CC1(C)C[C@H]2N(c3ccccn3)c3nc(Nc4ccc(N5CCN6CC[C@@H]5C6)cc4)ncc3[C@@]2(C)CO1 [Example 808, (4bR,8aR)-N-(4-((5R)-1,4-diazabicyclo[3.2.1]octan-4-yl)phenyl)-4b,7,7-trimethyl-9-(pyridin-2-yl)-4b,5,7,8,8a,9-hexahydropyrano[3′,4′:4,5]pyrrolo[2,3-d]pyrimidin-2-amine] | – | – | < 10 | –
CC1(C)C[C@H]2N(c3ccccn3)c3nc(Nc4ccc(N5CCN6CC[C@H]5C6)cc4)ncc3[C@@]2(C)CO1 [Example 809, (4bR,8aR)-N-(4-((5S)-1,4-diazabicyclo[3.2.1]octan-4-yl)phenyl)-4b,7,7-trimethyl-9-(pyridin-2-yl)-4b,5,7,8,8a,9-hexahydropyrano[3′,4′:4,5]pyrrolo[2,3-d]pyrimidin-2-amine] | – | – | < 10 | –
CC[C@]1(O)CCc2ccc(N3c4nc(Nc5ccn(C6CCN(C)CC6)c(=O)c5)ncc4[C@@]4(C)COC(C)(C)C[C@@H]34)nc21 [Example 811, 4-(((4bR,8aR)-9-((S)-7-ethyl-7-hydroxy-6,7-dihydro-5H-cyclopenta[b]pyridin-2-yl)-4b,7,7-trimethyl-4b,5,7,8,8a,9-hexahydropyrano[3′,4′:4,5]pyrrolo[2,3-d]pyrimidin-2-yl)amino)-1-(1-methylpiperidin-4-yl)pyridin-2(1H)-one] | – | – | < 10 | –
CN1C[C@@H]2C[C@H]1CN2c1ccc(Nc2ncc3c(n2)N(c2cccc(C(F)F)n2)[C@@H]2CC(C)(C)OC[C@]32C)cc1 [Example 813, (4bR,8aR)-9-(6-(difluoromethyl)pyridin-2-yl)-4b,7,7-trimethyl-N-(4-((1S,4S)-5-methyl-2,5-diazabicyclo[2.2.1]heptan-2-yl)phenyl)-4b,5,7,8,8a,9-hexahydropyrano[3′,4′:4,5]pyrrolo[2,3-d]pyrimidin-2-amine] | – | – | – | IC50 (Wee1 kinase domain; [3]): < 10 nM
CN(C)[C@H]1CCN(c2ccc(Nc3ncc4c(n3)N(c3ccccn3)[C@@H]3CC(C)(C)OC[C@]43C)cc2)C1 [Example 820, (4bR,8aR)-N-(4-((S)-3-(dimethylamino)pyrrolidin-1-yl)phenyl)-4b,7,7-trimethyl-9-(pyridin-2-yl)-4b,5,7,8,8a,9-hexahydropyrano[3′,4′:4,5]pyrrolo[2,3-d]pyrimidin-2-amine] | – | – | – | IC50 (Wee1 kinase domain; [3]): < 10 nM

— patent US20260166039A1 (SCHRÖDINGER, INC., priority 2022, published 2026)
